Measured values reported in patent publication US20100004292A1, “Iminooxazolidine Derivatives and Their Use” (Bayer HealthCare AG, priority 2005, published 2010).

Biological target: human factor Xa (FXa) (Homo sapiens, UniProt P00742)
Assay: Determination of the factor Xa inhibition (chromogenic substrate)
Assay type: biochemical
Conditions: human FXa 0.5 nmol/l, 150 μmol/l Pefachrome FXa, 25° C., pH 8.3
Experimental: The enzymatic activity of human factor Xa (FXa) is measured using the conversion of a chromogenic substrate specific for FXa. Factor Xa cleaves p-nitroaniline from the chromogenic substrate. The determinations are carried out in microtiter plates as follows:
The test substances, in various concentrations, are dissolved in DMSO and incubated for 10 minutes at 25° C. with human FXa (0.5 nmol/l dissolved in 50 mmol/l of Tris buffer [C,C,C-tris(hydroxymethyl)aminomethane], 150 mmol/l of NaCl, 0.1% BSA [bovine serum albumin], pH=8.3). Pure DMSO is used as control. The chromogenic substrate (150 μmol/l Pefachrome® FXa from Pentapharm) is then added. After an incubation time of 20 minutes at 25° C., the extinction at 405 nm is determined.

Sequence of human factor Xa (FXa) (P00742 235-488 limits assumed): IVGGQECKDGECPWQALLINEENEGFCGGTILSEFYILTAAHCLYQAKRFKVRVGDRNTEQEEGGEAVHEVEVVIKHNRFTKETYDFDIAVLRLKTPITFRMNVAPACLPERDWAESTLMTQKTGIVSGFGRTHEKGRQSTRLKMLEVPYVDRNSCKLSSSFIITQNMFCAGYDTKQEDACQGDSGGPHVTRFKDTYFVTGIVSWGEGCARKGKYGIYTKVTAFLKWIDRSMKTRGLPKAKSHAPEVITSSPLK
Sequence of human factor Xa (FXa) (P00742 41-179 partner limits assumed): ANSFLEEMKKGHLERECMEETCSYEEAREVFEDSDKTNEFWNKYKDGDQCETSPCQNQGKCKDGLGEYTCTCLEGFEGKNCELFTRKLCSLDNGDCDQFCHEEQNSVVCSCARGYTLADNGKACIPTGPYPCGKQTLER

N=C1OCCN1c1ccc(NC(=O)c2ccc(C(F)(F)F)cc2NC(=O)c2ccc(Cl)s2)cc1 [Example 3, 5-Chloro-N-[2-({[4-(2-imino-1,3-oxazolidin-3-yl)phenyl]amino}carbonyl)-5-(trifluoromethyl)-phenyl]thiophene-2-carboxamide methanesulfonate]
IC50: 1.1 nM

CSc1nc(NC(=O)c2ccc(Cl)s2)c(C(=O)Nc2ccc(N3CCOC3=N)cc2)s1 [Example 24, 4-{[(5-Chloro-2-thienyl)carbonyl]amino}-N-[4-(2-imino-1,3-oxazolidin-3-yl)phenyl]-2-(methyl-thio)-1,3-thiazole-5-carboxamide methanesulfonate]
IC50: 0.91 nM

N=C1OCCN1c1ccc(NC(=O)c2cscc2NC(=O)c2ccc(Cl)s2)cc1 [Example 16, 5-Chloro-N-[4-({[4-(2-imino-1,3-oxazolidin-3-yl)phenyl]amino}carbonyl)-3-thienyl]thiophene-2-carboxamide methanesulfonate]
IC50: 2.2 nM

N=C1OCCN1c1ccc(NC(=O)c2ccncc2NC(=O)c2ccc(Cl)s2)cc1 [Example 11, 3-{[(5-Chloro-2-thienyl)carbonyl]amino}-N-[4-(2-imino-1,3-oxazolidin-3-yl)phenyl]isonicotinamide methanesulfonate]
IC50: 6.3 nM

Cc1cc(NC(=O)c2ccc(Cl)s2)c(C(=O)Nc2ccc(N3CCOC3=N)cc2)cc1N(C)C [Example 20, 5-Chloro-N-[4-(dimethylamino)-2-({[4-(2-imino-1,3-oxazolidin-3-yl)phenyl]amino}carbonyl)-5-methylphenyl]thiophene-2-carboxamide methanesulfonate]
IC50: 0.66 nM
